In a melting point compilation (Tetko et al.; mined from patent text by program, amines drawn as free bases though some values may be those of a salt):

Row | SMILES | melting point [°C]
1 | N#Cc1ccc2c(c1)C(=O)NC(C(Cl)(Cl)Cl)O2 (stereo not given) | 212 to 214
2 | CCOC(=O)c1c(CN2CCCC2=O)nc2sc3c(c2c1-c1ccc2c(c1)OCO2)CCN(C(=O)c1ccccc1)C3 | 270 to 271
3 | O=C(O)Cc1c(C(=O)c2ccc(O)cc2)[nH]c2cc(Cl)ccc12 | 231 to 234
4 | Cc1cc(C)cc(-c2cn(C)cc(-c3ccccc3)c2=O)c1 | 148 to 150
5 | O=C(O)c1cncn1C(c1ccccc1)c1ccccc1 | 216
6 | CCOc1ccc(C(=O)OC)cc1C(=N)N | 133 to 135
7 | O=C(CSc1ccnc2ccccc12)c1ccc(OCc2ccccc2)cc1 | 135 to 136
8 | Cc1nc2cnc3ccccc3c2[nH]1 | 242 to 245
9 | COC(=O)c1cc(-c2ccc(-c3ccccc3)cc2)nn(CC(C)C)c1=O | 186 to 195
10 | Cc1cc(C)n2nc(S(=O)(=O)Nc3c(Cl)cccc3Cl)c(C#N)c2n1 | 280 to 285
11 | CC(C)CCCC(C)C1CCC2C3CCC4=CC(=O)C=CC4(C)C3CCC12C (stereo not given) | 50 to 57
12 | N=C(NO)c1nc2cnc3ccc(Cl)cc3c2n1-c1ccccc1Cl | 265 to 267
13 | CCc1noc(C)c1-c1[nH]c2ccccc2c1C(O)CCN(C)C (stereo not given) | 166 to 169
14 | Cc1cc(CNC(=O)c2sc(N3C[C@@H](C)N(Cc4ccc(F)cc4)C3=O)nc2C)no1 | 139 to 140
15 | N#CC(Cl)Cc1ccccc1C(=O)O (stereo not given) | 116 to 117
16 | Brc1ccc2nc(-c3ccccc3)cn2c1 | 192 to 194
17 | Cc1ccc(S(=O)(=O)NN=CC(Cl)Cl)cc1 | 123
18 | COc1ccccc1NC(=O)Nc1nc(NCCc2ccc(O)cc2)nc(Oc2ccc3ccccc3c2)n1 | 238
19 | O=C(Nc1cccnc1)NC(CS)Cc1ccccc1 (single isomer, unassigned; (+)) | 149
20 | CCn1c(=O)c(C(=O)NN)c(O)c2ccc(C)nc21 | 211 to 213
21 | CCCCn1nc(CCc2ccccc2)nc1Cc1ccc(-c2ccccc2-c2nnn[nH]2)nc1 | 121 to 123
22 | CCOc1cc2c(cc1OC)C(c1ccc(OC)c(OC)c1)=NN=C(C)C2CC (stereo not given) | 125 to 127
23 | CSc1nnc(-c2ccccc2CS(N)(=O)=O)o1 | 138 to 140
24 | Cc1cc(Oc2c(Cl)cc(C(F)(F)F)cc2Cl)ccc1S(=O)(=O)C(F)(F)F | 121 to 122
25 | NC(=S)NC1Cc2ccccc2C1 | 155

Row | SMILES | melting point [°C]
26 | CC(=O)OC1COC(N)C(OC(C)=O)C1OC(C)=O (stereo not given) | 148 to 149
27 | O=C(Nc1ccc(S(=O)(=O)c2ccc([N+](=O)[O-])cc2)cc1)N[C@@H](Cc1ccc(NC(=O)c2c(Cl)cccc2Cl)cc1)C(=O)O | 223
28 | CC(C)(C)NC(=O)[C@@H]1C[C@H](Cl)CN1C(=O)[C@@H](O)[C@H](Cc1ccccc1)NC(=O)[C@H](CC(N)=O)NC(=O)c1cnc2cc([N+](=O)[O-])ccc2n1 | 153 to 156
29 | CC(C)n1nc(-c2c(-c3ccccc3)nc(Cl)c(N)c2Cl)ccc1=O | 186 to 188
30 | CNC(=S)C1=CC(C)(CF)Oc2ccc([N+](=O)[O-])cc21 (stereo not given) | 141 to 144
31 | COC(=O)CS(=O)(=O)NOC[C@@H]1NC(=O)[C@@H]1NC(=O)OC(C)(C)C (relative stereo) | 128 to 129
32 | C#Cc1ccc2nc(Cl)c(S(=O)(=O)N=CN(CC(C)C)CC(C)C)n2n1 | 166 to 168
33 | CC(C)(C)OC(=O)N(CCCCC(=O)c1cc2c3c(c1)CCN3C(=O)CC2)CCc1ccccc1O | 154 to 155
34 | CCOC(=O)c1cc(-c2ccc(N)cc2)n(-c2ccc(F)cc2)n1 | 158 to 160
35 | CCCC(=N)Nc1ccccc1N1CCOCC1 | 131
36 | N#CC1CCN(C(=O)c2ccc3nonc3c2)CC1 | 104 to 107
37 | Fc1cccc(CCc2nnc(-c3ccnc4[nH]ccc34)o2)c1 | 147 to 148
38 | COc1ccccc1Sc1c(NS(=O)(=O)c2ccc(C(C)(C)C)cc2)ncnc1OCCOC(=O)Nc1ccccn1 | 193
39 | O=C(O)Cc1c(C(=O)c2ccc3c(c2)OCCO3)[nH]c2cc(Cl)ccc12 | 233
40 | Cc1cn([C@H]2CC[C@H](CC(=O)O)C[C@@H]2NC(=O)OC(C)(C)C)c(=O)n(COCc2ccccc2)c1=O | 89 to 91
41 | COc1ccc(N2CCCn3c2nc2c(Cl)ccc(C(OC)C(F)(F)F)c23)c(C)n1 (stereo not given) | 144 to 146
42 | CCCCCCCCCCCCCCCCSC(=O)Nc1ccc(NC(=O)NS(=O)(=O)c2ccc(OC)cc2)cc1 | 197
43 | CC(C)(C)OC(=O)Cn1c2ccccc2c2c(N3CCCC3)nc(N3CCCC3)nc21 | 131 to 133
44 | OCCCc1conc1-c1ccc(Cl)c(F)c1 | 54 to 55
45 | O=C1c2ccccc2C(=O)N1CCc1cc(Br)cs1 | 115 to 117
46 | C=C(C)Cn1ncc(Cl)c(Cl)c1=O | 52 to 54
47 | O=C(O)c1cc(-c2ccccc2)ccc1O | 214 to 216
48 | c1ccc(CSc2nnn[nH]2)cc1 | 98 to 100
49 | Cc1nc(Nc2ccc(F)cc2)nc(Cl)c1C | 114
50 | COc1cc(C(=O)Nc2c(Cl)cc3c(Br)n[nH]c3c2C(=O)NC(C)C)n(-c2ncccc2Cl)n1 | 217 to 218
